Calls of active or inactive are those of the source. No cut-off for these calls is given here.
What was measured:
[1] = Cytotoxicity against human U87 cells after 72 hrs by WST-1 assay; format: functional, cell-based, U-87MG ATCC; conditions: U-87 MG
PC-3 [2] = assay: Cytotoxicity against human PC3 cells after 72 hrs by WST-1 assay; format: functional, cell-based; conditions: PC-3, 72 h
MX1 [3] = assay: Antitumor activity in human MX1 cells xenografted athymic nu/nu mouse assessed as complete remission of tumor at 50 mg/kg, iv administered daily once for 3 days; format: functional, organism-based; parameters: dose 50 mg/kg
Nucleic Acid [4] = assay: Induction of pEGFP-N1 plasmid DNA interstrand cross-linking at 20 uM after 2 hrs by alkaline agarose gel shift assay; format: nucleic-acid assay
MX1 [5] = assay: Antitumor activity in human MX1 cells xenografted athymic nu/nu mouse assessed as complete remission of tumor at 5 mg/kg, iv administered daily once for 3 days measured after 22 days of tumor implantation; format: functional, organism-based; parameters: dose 5 mg/kg
CCRF-CEM [6] = assay: Cross-resistance, IC50 for human vinblastine-resistant CCRF-CEM cells to IC50 for human CCRF-CEM cells; format: functional
[7] = Cytotoxicity against human OECM1 cells after 72 hrs by WST-1 assay; format: functional, cell-based; conditions: OECM1, 72 h
CCRF-CEM [8] = assay: Cytotoxicity against human CCRF-CEM cells after 72 hrs by XTT assay; format: functional, cell-based; conditions: read-out: IC50
MX1 [9] = assay: Antitumor activity in human MX1 cells xenografted athymic nu/nu mouse assessed as complete remission of tumor at 15 mg/kg, iv administered daily twice for 4 days; format: functional, organism-based; parameters: dose 15 mg/kg
[10] = Toxicity in athymic nu/nu mouse assessed as maximum tolerated dose; format: organism-based; conditions: in vivo, read-out: Activity
MX1 [11] = assay: Antitumor activity in human MX1 cells xenografted athymic nu/nu mouse assessed as complete remission of tumor at 5 mg/kg, iv administered daily once for 3 days; format: functional, organism-based; parameters: dose 5 mg/kg
MX1 [12] = assay: Cytotoxicity against human MX1 cells after 72 hrs by SRB assay; format: functional, cell-based; conditions: MX1, 72 h
CCRF-CEM [13] = assay: Cytotoxicity against human taxol-resistant CCRF-CEM cells after 72 hrs by XTT assay; format: functional, cell-based
Nucleic Acid [14] = assay: Induction of pEGFP-N1 plasmid DNA interstrand cross-linking at 1 uM after 2 hrs by alkaline agarose gel shift assay; format: nucleic-acid assay
CCRF-CEM [15] = assay: Cross-resistance, IC50 for human taxol-resistant CCRF-CEM cells to IC50 for human CCRF-CEM cells; format: functional
[16] = Cytotoxicity against human H1299 cells after 72 hrs by WST-1 assay; format: functional, cell-based; conditions: NCI-H1299, 72 h
Nucleic Acid [17] = assay: Induction of pEGFP-N1 plasmid DNA interstrand cross-linking at 10 uM after 2 hrs by alkaline agarose gel shift assay; format: nucleic-acid assay
CCRF-CEM [18] = assay: Cytotoxicity against human vinblastine-resistant CCRF-CEM cells after 72 hrs by XTT assay; format: functional, cell-based
MX1 [19] = assay: Antitumor activity in human MX1 cells xenografted athymic nu/nu mouse assessed as complete remission of tumor at 18 mg/kg, iv administered daily twice for 2 days; format: functional, organism-based; parameters: dose 18 mg/kg
HCT-116 = assay: Cytotoxicity against human HCT116 cells after 72 hrs by SRB assay; format: functional, cell-based; conditions: HCT-116, 72 h
SK-OV-3 [20] = assay: Antitumor activity in human SKOV3 cells xenografted athymic nu/nu mouse assessed as tumor suppression at 20 mg/kg, iv administered daily once for 4 days measured after 22 days relative to control; format: functional
MX1 [21] = assay: Antitumor activity in human MX1 cells xenografted athymic nu/nu mouse assessed as tumor re-growth at 18 mg/kg, iv administered daily twice for 2 days measured after 40 days of tumor implantation; format: functional, organism-based; parameters: dose 18 mg/kg
Mus musculus = assay: Toxicity in human PC3 cells xenografted athymic nu/nu mouse assessed as weight loss at 50 mg/kg, iv administered daily once for 4 days measured after day 14 to day 32 relative to control; format: organism-based, PC-3; parameters: dose 50 mg/kg, route intravenous; conditions: in vivo, 96 h
PC-3 [22] = assay: Antitumor activity in human PC3 cells xenografted athymic nu/nu mouse assessed as complete tumor suppression at 50 mg/kg, iv administered daily once for 4 days measured after day 14 to day 32; format: functional, organism-based; parameters: dose 50 mg/kg
MX1 [23] = assay: Antitumor activity in human MX1 cells xenografted athymic nu/nu mouse assessed as tumor re-growth at 50 mg/kg, iv administered daily once for 3 days measured after 24 days of tumor implantation; format: functional, organism-based; parameters: dose 50 mg/kg
MX1 [24] = assay: Antitumor activity in human MX1 cells xenografted athymic nu/nu mouse assessed as complete remission of tumor at 50 mg/kg, iv administered daily once for 3 days measured after 24 days of tumor implantation; format: functional, organism-based; parameters: dose 50 mg/kg
SK-OV-3 [25] = assay: Antitumor activity in human SKOV3 cells xenografted athymic nu/nu mouse assessed as tumor suppression at 50 mg/kg, iv administered daily once for 3 days measured after 22 days relative to control; format: functional
MX1 [26] = assay: Antitumor activity in human MX1 cells xenografted athymic nu/nu mouse assessed as complete remission of tumor at 15 mg/kg, iv administered daily twice for 4 days measured after 18 days of tumor implantation; format: functional, organism-based; parameters: dose 15 mg/kg

SMILES	IC50 [1] [nM]	IC50 (PC-3 [2]) [nM]	Activity (MX1 [3])	Activity (Nucleic Acid [4])	Ratio IC50 (CCRF-CEM [6])	IC50 [7] [nM]	IC50 (CCRF-CEM [8]) [nM]	Activity (MX1 [9])	MTD [10] [mg/kg]	Activity (MX1 [11])	IC50 (MX1 [12]) [nM]	IC50 (CCRF-CEM [13]) [nM]	Activity (Nucleic Acid [14])	Ratio IC50 (CCRF-CEM [15])	IC50 [16] [nM]	Activity (Nucleic Acid [17])	IC50 (CCRF-CEM [18]) [nM]	Activity (MX1 [19])	IC50 (HCT-116) [nM]	other results
CNC(=O)OCc1c(COC(=O)NC)c(-c2ccc(OC)cc2)n2c1Cc1ccccc1-2	34400	38200	Active	Active	1.3	4630	49	Active	5	Active	1900	70	Active	1.4	42600	Active	63	Active	2600	Activity (MX1 [5]): Active
Cc1c(CO)c(CO)c2n1-c1ccccc1C2	19300	19700	Active	Active	–	860	10	Active	18	Active	360	32	Active	–	15200	Active	67	Active	340	Activity (SK-OV-3 [20]): 53%; Activity (MX1 [21]): inactive
CCc1c(CO)c(CO)c2n1-c1ccccc1C2	18200	16600	Active	Active	0.64	1240	360	Active	50	Active	1100	140	Active	0.39	14100	Active	230	Active	830	Activity (Mus musculus): 15%; Activity (PC-3 [22]): Active; Activity (MX1 [23]): inactive; Activity (MX1 [24]): Active; Activity (SK-OV-3 [25]): 78%
CNC(=O)OCc1c(COC(=O)NC)c(-c2ccccc2OC)n2c1Cc1ccccc1-2	–	–	Active	Active	2.7	–	140	Active	15	Active	1300	250	Active	1.8	–	Active	360	Active	150	Activity (MX1 [26]): Active

Reference: ChEMBL document CHEMBL1152415, “Potent antitumor bifunctional DNA alkylating agents, synthesis and biological activities of 3a-aza-cyclopenta[a]indenes” (Bioorg Med Chem, 2009)
